Values of other authors in patent US20090215818A1, “THIOZOLIDINEDIONE DERIVATIVES AS PI3 KINASE INHIBITORS” (SmithKline Beecham Corporation, priority 2006, published 2009).
Read-outs that look alike come from different tables or passages of the source.

Columns and labels:
Class I PI3-kinases = conditions: each of the Class I PI3-kinases
CK2 protein kinase = CK2 protein kinase (Homo sapiens, UniProt P68400)
Sequence of CK2 protein kinase (P68400 whole entry): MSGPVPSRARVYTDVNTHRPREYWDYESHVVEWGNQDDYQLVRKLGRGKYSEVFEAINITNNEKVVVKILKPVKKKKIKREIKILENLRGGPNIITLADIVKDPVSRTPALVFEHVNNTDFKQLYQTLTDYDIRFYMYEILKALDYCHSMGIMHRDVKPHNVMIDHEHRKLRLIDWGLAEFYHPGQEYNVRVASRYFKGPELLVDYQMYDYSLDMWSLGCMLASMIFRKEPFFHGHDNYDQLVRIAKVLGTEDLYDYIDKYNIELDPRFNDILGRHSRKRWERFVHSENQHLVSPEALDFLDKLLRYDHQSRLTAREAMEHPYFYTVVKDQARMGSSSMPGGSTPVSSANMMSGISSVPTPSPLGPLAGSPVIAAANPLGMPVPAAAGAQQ

## O=c1cc(N2CCOCC2)oc2c(-c3ccccc3)cccc12 [LY294002]
Class I PI3-kinases; Fruman et al. 1998, read-out: IC50 against each of these PI3-kinases
  IC50: 15 to 20 µM
CK2 protein kinase
  IC50: 5 to 10 µM

## wortmannin
Class I PI3-kinases; read-out: IC50 against each of the various Class I PI3-kinases
  IC50: 0.001 to 0.01 µM
